The subject of experiment [1] is B16F10-hClaudin18.2 cells. The experiment in a line: Immunogenic cell death of B16F10-hClaudin18.2 cells (Calreticulin/PI FACS). The class given is cell-based. The conditions noted are these: small molecular drug load 10 nM, 48 hours. The method, then:
The B16F10-hClaudin18.2 cells were resuscitated and cultured in a medium of DMEM (Thermo, cat #: 10569044)^+10% FBS (Thermo, Cat #: 10099-141C)+0.5 μg/mL Puromycin to subject to adherent culture at 37° C. in 5% CO2 incubator. When the cell confluence was greater than 80%, the cells were passaged at a ratio of 1:10 to 1:20 every 3-4 days.
When the cells grew to a confluence of about 80%, the cells were digested by a digestive solution of recombinant enzyme (TrypLE™ Express Enzyme, Thermo, cat #: 12605028). Then the cells were resuspended with DMEM+10% FBS, and an appropriate volume was taken for counting. The cell density was adjusted to 1×10^4 cells/mL, and inoculated into 96-well cell plate at 100 μL/well to culture overnight at 37° C. in 5% CO2 incubator. The next day, the ADC drug was diluted with DMEM+10% FBS medium to a final concentration of 750 nM, the small molecule toxin Exatecan was diluted to a final concentration of 10 nM, and sample concentration of 0 was set as blank control. The diluted samples were respectively added to 96-well cell culture plate containing cells at 100 μL/well to incubate at 37° C. in 5% CO2 incubator for 48 hours. […]

The subject of the next experiment is NUGC4-hClaudin18.2 cells. Description: In vitro tumor cell killing activity, NUGC4-hClaudin18.2 cell line (CCK-8). The class given is cell-based. The conditions noted are these: Homo sapiens, 120 h, read-out: IC50 values (nM).
Experiment [2] concerns HEK293-hClaudin18.2 cells. The experiment in a line: In vitro cell killing activity, HEK293-hClaudin18.2 cell line (AlamarBlue). Format: cell-based. As to the method:
HEK293-hClaudin18.2 cells were cultured in DMEM medium containing 10% FBS, supplemented with 250 μg/mL G418 to subject to adherent culture at 37° C. in 5% CO2 incubator. When the cell confluence was greater than 80%, the cells were passaged at a ratio of 1:20 to 1:40 every 3 days.
HEK293-hClaudin18.2 cells were digested by a digestive solution of recombinant enzyme (TrypLE™ Express Enzyme). After counting, an appropriate amount of cells were taken to resuspend with DMEM+10% FBS. The cell density was adjusted to 2×10^4 cells/mL, inoculating into 96-well cell culture plate at 100 μL/well. The cells were cultured overnight at 37° C. in 5% CO2 incubator. The next day, 9D1 ADC and small molecular toxin were diluted 10 times in a series from 1000 nM (final concentration, 500 nM) with a total of 7-8 concentration points, simultaneously setting a negative control with a sample concentration of 0, and a blank control containing only same volume (200 μL/well) of medium without cells. The diluted sample was added to 96-well cell culture plate containing cells at 100 μL/well (two duplicated wells), then incubating at 37° C. in 5% CO2 incubator for 72 hours. The cell viability was detected by the AlamarBlue detection method mentioned above, then processing data to calculate the IC50 values, and the results are shown in Table 5 below.

Another experiment concerns MC38-hClaudin18.2 cells. Description: In vitro tumor cell killing activity, MC38-hClaudin18.2 cell line (AlamarBlue). The class given is cell-based, mouse. As to the method: 9D1 antibody-drug conjugates prepared in the previous Experimental Examples and Comparative Examples were used for performing in vitro killing test on MC38 cell lines stably expressing human Claudin18.2. MC38-hClaudin18.2 cells were inoculated into a 96-well cell culture plate at 3000 cells/well, adding gradient diluted 9D1 ADCs next day to culture for 48-72 hours. The fluorescence values of each experimental well were detected by AlamarBlue reagent (ThermoFisher, item number DAL1100), and the cell viability was calculated.
When the cell confluence was greater than 80%, the cells were passaged at a ratio of 1:10 to 1:20 every 3 days.
MC38-hClaudin18.2 cells were digested by a digestive solution of recombinant enzyme (TrypLE™ Express Enzyme). […] The cell density was adjusted to 3×10^4 cells/mL, inoculating into 96-well cell culture plate at 100 μL/well. The cells were cultured overnight at 37° C. in 5% C02 incubator. The next day, the test drug was diluted 10 times in a series with a total of 7-8 concentration points, simultaneously setting a blank control with a sample concentration of 0. The diluted sample was added to 96-well cell culture plate containing cells at 100 μL/well, then incubating at 37° C. in 5% CO2 incubator for 48-72 hours. 20 μL of AlamarBlue detection reagent was added to each well, incubating at 37° C. for 4-6 hours, the fluorescence signal intensity was detected on a multifunctional enzyme-linked immunosorbent assay (ELISA) instrument with an excitation wavelength of 560 nm and an emission wavelength of 590 nm.
The cell viability of the blank control was set to 100%, and the cell viability (%) of the experimental well was calculated by the following formula: […]
The detected average cell viability was takedn as the y-axis, a sigmoid dose response (Variable Slope) method (GraphPad Prism software, GraphPad Software, San Diego, California) was used for nonlinear regression to obtain the inhibitory effect curves of cell proliferation, and the corresponding IC50 values (half maximum inhibition concentration) were calculated. […]

Experiment [3] relates to MC38 hClaudin18.2 tumor (high expression of p-gp). Description: Pharmacodynamics in p-gp mediated drug-resistant tumor bearing mouse model. The conditions noted are these: in words; ADC 10 mg/kg i.p. QW × 2, Tariquidar p.o. QD × 10. The class given is in vivo. The method, then: Modeling and administration of tumor bearing mice: BALB/c Nude mice (female, 5-6 week old) were subcutaneously inoculated with MC38 hClaudin18.2 cells (1×10^6 cells in […]) on the ventral side. When the tumor volume increased to about 120 mm^3, the mice were randomly divided into groups and administered according to Table 10. The tumor and body weight were measured twice a week to calculate the tumor volumes (TV, mm^3) and plot the tumor growth curves. TV (mm^3)=(L×W^2)/2, wherein L represents tumor length, and W represents tumor width. GraphPad Prism software (GraphPad Software, San Diego, California) and XY mode were selected to plot the tumor growth curves and weight curves of mice, and the tumor volumes and weights were represented as mean±standard error.

Molecules are shown by their SMILES. Like-named read-outs stand apart in the source and are kept apart here.

Experimental for NUGC4-hClaudin18.2 cells: When the cell confluence was greater than 80%, the cells were passaged at a ratio of 1:3 to 1:10 every 3-4 days.
NUGC4-hClaudin18.2 cells were digested by a digestive solution of recombinant enzyme (TrypLE™ Express Enzyme). […] The cell density was adjusted to 3×10^4 cells/mL, inoculating into 96-well cell culture plate at 100 μL/well. The cells were cultured overnight at 37° C. in 5% CO2 incubator. The next day, 9D1 ADC and small molecular toxin were diluted 5 times in a series from 1000 nM (final concentration, 500 nM) with a total of 7-8 concentration points, simultaneously setting a negative control with a sample concentration of 0, and a blank control containing only medium without cells. The diluted sample was added to 96-well cell culture plate containing cells at 100 μL/well (two duplicated wells), then incubating at 37° C. in 5% CO2 incubator for 120 hours. 20 μL of CCK-8 detection reagent (Dongren Chemical, CAS #CK04) was added to each well, incubating at 37° C. for 3-4 hours. The OD values of each well in the ELISA plate were measured at a wavelength of 450 nm and a reference wavelength of 630 nm on a multifunctional enzyme-linked immunosorbent assay (ELISA) reader, for each well, OD value=0D450 nm−OD630 nm. The cell viability of the negative control was set to 100%, and the cell viability (%) of the experimental wells was calculated according to the following formula. […]

In the case of `CC[C@@]1(O)C(=O)OCc2c1cc1n(c2=O)Cc2c-1nc1cc(F)c(C)c3c1c2[C@@H](NC(=O)CO)CC3` [Dxd], the “ratio of Calreticulin(+)/PI(−) cells” value in experiment [1] is “significantly raised”.

Take `CC[C@@]1(O)C(=O)OCc2c1cc1n(c2=O)Cc2c-1nc1cc(F)c(C)c3c1c2[C@@H](N)CC3` [Exatecan]: the IC50 with NUGC4-hClaudin18.2 cells was determined as 2.01 nM; in experiment [2] (72 h, read-out: IC50 values (nM), HEK293-hClaudin18.2 cells, 72 hours, AlamarBlue), 0.51 nM; in experiment [2] (read-out: IC50 values, HEK293-hClaudin18.2 cells, 72 hours, AlamarBlue), 0.508 nM; in the experiment with MC38-hClaudin18.2 cells (Mus musculus, read-out: IC50 values (nM), MC38-hClaudin18.2 cells, 48-72 hours, AlamarBlue) it was 4.1 nM; with MC38-hClaudin18.2 cells (read-out: IC50 values, MC38-hClaudin18.2 cells, 48-72 hours, AlamarBlue) it was 4.1 nM. Besides, the “ratio of Calreticulin(+)/PI(−) cells” value in experiment [1] was “significantly raised”.

With `COc1cc2c(cc1OC)CN(CCc1ccc(NC(=O)c3cc(OC)c(OC)cc3NC(=O)c3cnc4ccccc4c3)cc1)CC2` [Tariquidar], in experiment [3], the tumor inhibitory effect entry is on record as “has no tumor inhibitory effect”.

These data come from patent publication US20260232825A1, “LINKER-DRUG MOLECULE AND ANTIBODY DRUG CONJUGATE, PREPARATION METHOD THEREFOR AND USE THEREOF” (SHANGHAI ESCUGEN BIOTECHNOLOGY CO., LTD., priority 2023, published 2026).
